One assay concerns human platelets. The assay can be described thus: Platelet aggregation inhibition assay. It counts as cell-based. Particulars: ADP-induced aggregation, platelet-rich plasma from healthy male adult donors, 37° C. As for the experimental part:
Platelet aggregation inhibition assay
The citrated blood from healthy male adult donors was centrifuged at 1000×g for […] and 20 minutes to harvest platelet-rich plasma (PRP) and platelet-poor plasma (PPP), respectively. Then, PRP was diluted with PPP to a platelet count of 300,000/μL. The degree of platelet aggregation was measured with a platelet aggregation measuring apparatus.
In the assay cuvette, 200 μL of PRP was incubated at 37° C. for 2 minutes. Then, 20 μL of a test drug solution was added and the mixture was further incubated for 2 minutes. Thereafter, aggregation was induced by adding 20 μl of ADP solution. The aggregation in the drug treatment group was compared with the maximum aggregation in the control group to find the inhibition rate. ADP was used in the minimal concentration (2×10^−6 to 3×10^−5 M) inducing maximal aggregation in each assay.
The test compound was added at the final concentrations of 10^−3 to 10^−9 and the IC50 value was calculated from the inhibition rates at the respective concentrations.

The target in another assay is T1, human PGI2 receptors (Homo sapiens, UniProt P43119).
T1 construct: expressed in transfected cells; host or cells: CHO cells (membrane fraction)
T1 sequence (P43119 whole entry): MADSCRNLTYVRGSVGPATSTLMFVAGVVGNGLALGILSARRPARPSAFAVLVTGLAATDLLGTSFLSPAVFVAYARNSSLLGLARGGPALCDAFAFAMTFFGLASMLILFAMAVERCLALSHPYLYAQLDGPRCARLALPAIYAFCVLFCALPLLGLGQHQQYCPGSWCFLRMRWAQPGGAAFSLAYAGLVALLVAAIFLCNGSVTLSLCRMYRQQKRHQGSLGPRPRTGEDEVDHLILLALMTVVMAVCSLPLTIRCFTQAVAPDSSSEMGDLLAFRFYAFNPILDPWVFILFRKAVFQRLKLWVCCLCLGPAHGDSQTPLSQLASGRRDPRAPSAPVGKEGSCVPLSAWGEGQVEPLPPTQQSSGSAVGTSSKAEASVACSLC
The assay can be described thus: PGI2 receptor binding assay. Conditions: membrane fraction of CHO cells expressing human PGI2 receptors, [3H]Iloprost 20 nM, pH 6.0, 37° C. 1 hour; read-out: IC50, inhibition of [3H]Iloprost binding to the human PGI2 receptor. As for the experimental part: PGI2 receptor binding assay
MES-NaOH buffer (pH 6.0) (500 μL) containing the membrane fraction (40 μg) of CHO cells caused to express human PGI2 receptors, [^3H]Iloprost (20 nM), and a test compound solution (50 μL) was incubated at 37° C. for 1 hour and then filtered through a membrane filter to separate the membrane-bound [^3H]Iloprost from the non-membrane-binding [^3H]Iloprost. The radioactivity of the membrane-bound [^3H]Iloprost was determined with a liquid scintillation counter and the binding inhibition rate in each drug treatment group was determined against the specific binding of [^3H]Iloprost to the human PGI2 receptor in the control (solvent) group.
The test compound was added at the final concentrations of 10^−6 to 10^−11 M and the IC50 values were calculated from the inhibition rates at the respective concentrations.

SMILES strings stand for the structures.

Consider 5 compounds from US6417213B2, “Tricyclic compound, their production and use” (Takeda Chemical Industries, Ltd., priority 1996, dated 2002).

Broadly, the IC50 is the midpoint of a concentration-inhibition curve. As for `O=C(O)COc1cccc2c1CCc1sc(SCC(c3ccccc3)c3ccccc3)nc1-2` [Example 1, [[2-(2,2-Diphenylethyl)thio-4,5-dihydronaphtho[1,2-d]thiazol-6-yl]oxy]acetic acid], the results for the IC50 with human platelets and at human PGI2 receptors were 540 nM and 24 nM, respectively. For the compound `O=C(O)COc1cccc2c1OCc1sc(SCCC(c3ccccc3)c3ccccc3)nc1-2` [Example 11, [[2-(3,3-Diphenylpropyl)thio-4H-[1]benzopyrano[4,3-d]thiazol-6-yl]oxy]acetate acid], at human PGI2 receptors, the IC50 was 81 nM. Regarding `O=C(O)COc1cccc2c1OCc1sc(SCC(c3ccccc3)c3ccccc3)nc1-2` [Example 12, [[2-(2,2-Diphenylethyl)thio-4H-[1]benzopyrano[4,3-d]thiazol-6-yl]oxy]acetic acid], the IC50 on human PGI2 receptors was found to be 61 nM.

Turning to `O=C(O)COc1cccc2c1CCc1sc(SC(c3ccccc3)c3ccccc3)nc1-2` [Example 21, [(2-Diphenylmethylthio-4,5-dihydronaphtho[1,2-d]thiazol-6-yl)oxy]acetic acid], the results for the IC50 in the assay on human platelets and on human PGI2 receptors were 210 nM and 2 nM, respectively.

As to `O=C(O)COc1cccc2c1CCc1sc(S(=O)(=O)CC(c3ccccc3)c3ccccc3)nc1-2` [Example 29, [[2-(2,2-Diphenylethyl)sulfonyl-4,5-dihydronaphtho[1,2-d]thiazol-6-yl]oxy]acetic acid], the IC50 on human PGI2 receptors came to 21 nM.
